In patent US6384051B1, “Method of treating or inhibiting colonic polyps” (American Cyanamid Company, priority 2000, dated 2002):
Where a name gives a salt, the structure may show the parent alone.

melting point | Compound
159 to 162 °C | COc1cc2ncc(C#N)c(Nc3ccccc3CCO)c2cc1OC [Example 301, 4-[2-(2-Hydroxy-ethyl)-phenylamino]-6,7-dimethoxy-quinoline-3-carbonitrile]
198 to 202 °C (dec.) | COCC#CC(=O)Nc1ccc2ncc(C#N)c(Nc3cccc(Br)c3)c2c1 [Example 60, N-[4-[(3-Bromophenyl)amino]-3-cyano-6-quinolinyl]-4-methoxy-2-butynamide]
> 250 °C | COc1cc2ncc(C#N)c(Nc3cc(Cl)c(O)c(Cl)c3)c2cc1OC [Example 286, 4-(3,5-Dichloro-4-hydroxy-phenylamino)-6,7-dimethoxy-quinoline-3-carbonitrile]
222 to 225 °C | COc1cccc2c(Nc3cccc(N(C)C)c3)c(C#N)cnc12 [Example 277, 4-(3-Dimethylamino-phenylamino)-8-methoxy-quinoline-3-carbonitrile]
240 °C (dec.) | COc1ccc(OC)c2c(Nc3cc(O)c(Cl)cc3F)c(C#N)cnc12 [Example 243, 4-(4-Chloro-2-fluoro-5-hydroxy-phenylamino)-5,8-dimethoxy-quinoline-3-carbonitrile]
225 °C (dec.) | CN(C)CC#CC(=O)Nc1ccc2ncc(C#N)c(Nc3ccc(F)c(Cl)c3)c2c1 [Example 193, N-[4-[(3-Chloro-4-fluorophenyl)amino]-3-cyano-6-quinolinyl]-4-dimethylamino-2-butynamide]
201 to 205 °C | N#Cc1cnc2cc3c(cc2c1Nc1cccc(Br)c1)OCO3 [Example 40, 8-[(3-Bromophenyl)amino]-[1,3]-dioxolo[4,5-g]quinoline-7-carbonitrile]
255 to 257 °C | COc1cc2ncc(C#N)c(Nc3cccc(O)c3C)c2cc1OC [Example 245, 4-(3-Hydroxy-2-methyl-phenylamino)-6,7-dimethoxy-quinoline-3-carbonitrile]
223 to 225 °C | COc1cc2c(Nc3cc(O)c(Cl)cc3F)c(C#N)cnc2c(OC)c1OC [Example 244, 4-(4-Chloro-2-fluoro-5-hydroxy-phenylamino)-6,7,8-trimethoxy-quinoline-3-carbonitrile]
211 to 213 °C | COc1cc2c(Nc3cccc(Br)c3)c(C#N)cnc2c(OC)c1OC [Example 241, 4-(3-Bromo-phenylamino)-6,7,8-trimethoxy-quinoline-3-carbonitrile]
282 to 285 °C | COc1cc2ncc(C#N)c(Nc3ccc(F)cc3)c2cc1OC [Example 46, 4-[(4-Fluorophenyl)amino]-6,7-dimethoxy-3-quinolinecarbonitrile]
238 to 240.5 °C | COc1cc2ncc(C#N)c(Nc3ccccc3C(N)=O)c2cc1OC [Example 297, 2-(3-Cyano-6,7-dimethoxy-quinolin-4-ylamino)-benzamide]
240 °C (dec.) | COc1ccc2c(Nc3cc(O)c(Cl)cc3F)c(C#N)cnc2c1 [Example 282, 4-(4-Chloro-2-fluoro-5-hydroxy-phenylamino)-7-methoxy-quinoline-3-carbonitrile]
200 °C (dec.) | COc1cc2c(Nc3ccc(C)c(O)c3)c(C#N)cnc2c(OC)c1OC [Example 233, 4-(3-Hydroxy-4-methyl-phenylamino)-6,7,8-trimethoxy-quinoline-3-carbonitrile]
146 °C (dec.) | COc1cccc2c(Nc3ccc(Br)c(O)c3)c(C#N)cnc12 [Example 278, 4-(4-Bromo-3-hydroxy-phenylamino)-8-methoxy-quinoline-3-carbonitrile]
133 to 135 °C | CCN(CC)CC#CC(=O)Nc1ccc2ncc(C#N)c(Nc3cccc(Br)c3)c2c1 [Example 187, N-[4-[(3-Bromophenyl)amino]-3-cyano-6-quinolinyl]-4-diethylamino-2-butynamide]
265 to 267 °C | COc1cc2ncc(C#N)c(Nc3ccc(Cl)c(C(F)(F)F)c3)c2cc1OC [Example 338, 4-(4-Chloro-3-trifluoromethylphenylamino)-6,7-dimethoxyquinoline-3-carbonitrile]

The next lines start with the compound.

Compound | melting point
COc1cc2ncc(C#N)c(Nc3ccc(C)cc3O)c2cc1OC [Example 287, 4-(2-Hydroxy-4-methyl-phenylamino)-6,7-dimethoxy-quinoline-3-carbonitrile] | > 250 °C
COc1cccc2c(Nc3c(F)cc(F)cc3F)c(C#N)cnc12 [Example 280, 8-Methoxy-4-(2,4,6-trifluoro-phenylamino)-quinoline-3-carbonitrile] | 297 °C (dec.)
COc1cc2c(Nc3ccc(Cl)cc3F)c(C#N)cnc2cc1OCc1ccccc1 (as salt: hydrochloride) [Example 322, 7-Benzyloxy-4-(4-chloro-2-fluoro-phenylamino)-6-methoxy-quinoline-3-carbonitrile] | 241 to 243 °C
N#Cc1cnc2ccc(N)cc2c1Nc1ccc(F)c(Br)c1 [Example 196, 6-amino-4-[(3-Bromo-4-fluorophenyl)amino]-3-quinolinecarbonitrile] | 210 to 212 °C
CN(C)CC#CC(=O)Nc1ccc2ncc(C#N)c(Nc3ccc(F)c(Br)c3)c2c1 [Example 197, N-[4-[(3-Bromo-4-fluorophenyl)amino]-3-cyano-6-quinolinyl]-4-dimethylamino-2-butynamide] | 228 to 231 °C
COc1cc2ncc(C#N)c(Nc3ccc(O)c(Cl)c3)c2cc1OC [Example 249, 4-(3-Chloro-4-hydroxy-phenylamino)-6,7-dimethoxy-quinoline-3-carbonitrile] | 230 to 232 °C
COc1cccc2c(Nc3cccc(Br)c3)c(C#N)cnc12 [Example 274, 4-[(3-Bromophenyl)amino]-8-methoxy-3-quinolinecarbonitrile] | 210 to 212 °C
CC(C)N(CC#CC(=O)Nc1ccc2ncc(C#N)c(Nc3cccc(Br)c3)c2c1)C(C)C [Example 192, N-[4-[(3-Bromophenyl)amino]-3-cyano-6-quinolinyl]-4-diisopropylamino-2-butynamide] | 130 °C (dec.)
COc1cc2ncc(C#N)c(Oc3cccc(Br)c3)c2cc1OC [Example 49, 4-(3-Bromophenoxy)-6,7-dimethoxy-3-quinolinecarbonitrile] | 187 to 190 °C
COc1ccc(OC)c2c(Nc3cccc(Br)c3)c(C#N)cnc12 [Example 240, 4-(3-Bromo-phenylamino)-5,8-dimethoxy-quinoline-3-carbonitrile] | 72 to 74 °C
COc1cc2c(Nc3cccc(Br)c3)c(C#N)cnc2cc1OCCCN1CCOCC1 [Example 313, 4-(3-Bromo-phenylamino)-6-methoxy-7-(3-morpholin-4-yl-propoxy)-quinoline-3-carbonitrile] | 115 to 118 °C
COc1ccc(Nc2c(C#N)cnc3cc(OC)c(OC)cc23)c(C)c1 [Example 367, 6,7-Dimethoxy-4-(4-methoxy-2-methyl-phenylamino)-quinoline-3-carbonitrile] | > 131 °C (dec.)
COc1cc2ncc(C#N)c(Nc3ccc(O)cc3Cl)c2cc1OC [Example 296, 4-(2-Chloro-4-hydroxy-phenylamino)-6,7-dimethoxy-quinoline-3-carbonitrile] | > 250 °C
COc1cc2c(Nc3ccc(O)cc3C)c(C#N)cnc2cc1OCCCN1CCOCC1 [Example 312, 4-(4-Hydroxy-2-methyl-phenylamino)-6-methoxy-7-(3-morpholin-4yl-propoxy)-quinoline-3-carbonitrile] | 120 to 126 °C
